We go through 2 compounds from patent US20240307480A1, “MELFLUFEN FOR USE IN THE TREATMENT OF MULTIPLE MYELOMA” (Oncopeptides AB, priority 2021, published 2024).

The experiment concerns patients with relapsed refractory multiple myeloma (RRMM) refractory to lenalidomide. In words: Randomized, controlled, open-label, Phase 3 multicenter study of melflufen+dexamethasone versus pomalidomide+dexamethasone (Example 1). Type of experiment: in vivo, human. Conditions: for OS / PFS: no stem cell transplant. The procedure: Patients received either melflufen+dexamethasone or pomalidomide+dexamethasone.
Patients were randomized to either one of two arms (see Table 1 below): • Arm A: Melphalan flufenamide (Melflufen) 40 mg on Day 1 and dexamethasone 40 mg on Days 1, 8, 15 and 22 of each 28-day cycle. • Arm B: Pomalidomide 4 mg daily on Days 1 to 21 and dexamethasone 40 mg on Days 1, 8, 15 and 22 of each 28-day cycle.
Dose modifications and delays in therapy were implemented based on patient tolerability as detailed in the protocol. In the event of a cycle delay, unrelated to dexamethasone toxicity, it was recommended to continue dexamethasone weekly.
• Study Type: Interventional (Clinical Trial) • Actual Enrollment: 495 participants • Allocation: Randomized • Intervention Model: Parallel Assignment • Masking: Single (Outcomes Assessor) • Primary Purpose: Treatment • Official Title: A Randomized, Controlled, Open-label, Phase 3 Study of Melflufen/Dexamethasone Compared With Pomalidomide/Dexamethasone for Patients With Relapsed Refractory Multiple Myeloma Who Are Refractory to Lenalidomide
• 1. Progression Free Survival (PFS) [Time Frame: From randomization to time of progression, or, if no progression, 24 months after end of treatment]: To compare the PFS of melflufen plus dexamethasone (Arm A) versus pomalidomide plus dexamethasone (Arm B) as assessed by the Independent Review Committee (IRC) according to the International Myeloma Working Group Uniform Response Criteria (IMWG-URC)
• 1. […] Overall Survival (OS) [Time Frame: From randomization until end of study (2 years after confirmed progression)]: To assess and compare OS in Arm A versus Arm B • 4. Safety and Tolerability: Number of patients with treatment-emergent adverse events, including clinical laboratory and vital signs abnormalities, as assessed by CTCAE v4.0 [Time Frame: From start of dosing until 30 days after last dose]: To assess and compare safety and tolerability in Arm A versus Arm B. Number of patients with treatment-emergent adverse events, including clinical laboratory and vital signs abnormalities, as assessed by CTCAE v4.0 will be presented. No formal statistical analysis will be performed for safety endpoints.
• 1. Male or female, age 18 years or older • 2. A prior diagnosis of multiple myeloma with documented disease progression requiring further treatment at time of screening • 3. Measurable disease defined as any of the following: • Serum monoclonal protein ≥0.5 g/dl by protein electrophoresis. • ≥200 mg/24 hours of monoclonal protein in the urine on 24-hour electrophoresis • Serum free light chain ≥10 mg/dl AND abnormal serum kappa to lambda free light chain ratio • 4. Received 2-4 prior lines of therapy, including lenalidomide and a PI, either sequential or in the same line, and is refractory (relapsed and refractory or refractory) to both the last line of therapy and to lenalidomide (≥10 mg) administered within 18 months prior to randomization. Refractory to lenalidomide is defined as progression while on lenalidomide therapy or within 60 days of last dose, following at least 2 cycles of lenalidomide with at least 14 doses of lenalidomide per cycle • 5. Life expectancy of ≥6 months • 6. Eastern Cooperative Oncology Group (ECOG) performance status ≤2 • 7. […] Participants must agree to ongoing pregnancy testing. All patients must be willing to comply with all requirements of the USA pomalidomide Risk Evaluation and Mitigation Strategy (REMS) program or the pomalidomide Pregnancy Prevention Plan (PPP) • 8. Ability to understand the purpose and risks of the study and provide signed and dated informed consent • 9. 12-lead Electrocardiogram (ECG) with QT interval calculated by Fridericia Formula (QTcF) interval of ≤470 msec Fridericia Formula • 10. […] Must be able to take antithrombotic prophylaxis • 12. Must have, or be willing to have an acceptable central catheter.

[1] abbreviates: excluding patients who had received a stem cell transplant and progressed in under 36 months (melflufen+dex n=145, pomalidomide+dex n=148).
Where [2] appears, read: subgroup patients under 65 years.
Where [3] appears, read: patients 75 or over who received melflufen, pomalidomide comparator worded as patients who had not received a stem cell transplant.
Where [4] appears, read: patients who had not received a stem cell transplant as a past treatment (melflufen n=121, pomalidomide n=129), each arm with dexamethasone.
Setting [5] is: stem cell transplant at least 5 years ago, melflufen in relation to pomalidomide, value below 1 favours melflufen.

`CCOC(=O)[C@H](Cc1ccc(F)cc1)NC(=O)[C@@H](N)Cc1ccc(N(CCCl)CCCl)cc1.Cl` [melflufen, L-melphalanyl-4-fluoro-L-phenylalanine ethyl ester]: the “median overall survival (OS)” value came to 23.6 months under setting [1], 21.6 months under setting [3] and 21.6 months under setting [4]. The OS runs as follows: (subgroup 64 to 74 years) 22.2; (subgroup 75 years and over) 14.8; (subgroup age under 75 years) 22.2; under setting [2], 27.5. The PFS is, setting by setting: (subgroup 64 to 74 years) 9.3; (subgroup 75 years and over) 9.3; (subgroup age under 75 years) 9.4; under setting [2], 10.8. Also, the “median PFS” value under setting [3] was 9.4 months. Under setting [4], the “median progression free survival (PFS)” value came to 9.3 months. Further, the “hazard ratio (PFS)” value (stem cell transplant 2.5 to 5 years ago, melflufen in relation to pomalidomide, value below 1 favours melflufen) is recorded as 0.83. The OS hazard ratio under setting [5] is 0.87. Further, under setting [5], the PFS hazard ratio is listed as 0.76.
In the case of `Nc1cccc2c1C(=O)N(C1CCC(=O)NC1=O)C2=O` (stereo not shown) [pomalidomide, reference compound], the “median overall survival (OS)” value under setting [1] amounted to 19.8 months, the “median overall survival (OS)” value under setting [3] is reported as 8.3 months and the “median overall survival (OS)” value under setting [4] is listed as 16.5 months. Moreover, the OS runs as follows: (subgroup 64 to 74 years) 15.0; (subgroup 75 years and over) 8.1; (subgroup age under 75 years) 18.2. Also, the PFS runs as follows: (subgroup 64 to 74 years) 3.9; (subgroup 75 years and over) 4.9; (subgroup age under 75 years) 4.3; under setting [2], 4.7. Besides, the “median PFS” value under setting [3] was 4.6 months. Moreover, the “median progression free survival (PFS)” value under setting [4] was 4.6 months.
